Values of other authors in patent publication US20180243282A1, “Preparation and Use of Combination Enzyme and Gastrointestinal Modulator Delivery Systems” (Curemark, LLC, priority 2010, published 2018).

How the values were obtained:
[1] = in vivo
[2] = in vivo; remark: listed apart in the source
[3] = acidic conditions in the stomach

Row | Compound | clearance by hemodialysis [1] | excretion [2] | systemic absorption [2] | systemic toxicity [2] | protective coating lasts [3]
1 | CN/C(=N/CCSCc1nc[nH]c1C)NC#N [cimetidine] | cleared by hemodialysis | – | – | – | –
2 | Bismuth | – | excreted in the feces | largely unabsorbed | – | –
3 | sucralfate | – | – | lack of systemic absorption | no systemic toxicity | up to 6 hours
